From ChEMBL document CHEMBL1201862, “PubChem BioAssay data set” (2004)
Structures can show the parent of a compound that is named as a salt.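 Interpolation was linear, between the two tested concentrations surrounding the appropriate level; five concentrations were tested over 48 hours in 96-well plates. GI50: concentration for 50% inhibition of growth.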 Activity calls are given as the source filed them. No stated cut-off is given here; in the data, active = GI50 up to about 1.1 µM and inactive = higher.

Key:
Test in all cases: growth of human tumour cells (NCI), 48 h
A549 = test system: A549
ACHN = test system: ACHN
COLO 205 = test system: COLO 205
DMS-114 = test system: DMS-114
DMS-273 = test system: DMS-273
EKVX = test system: EKVX
HCC 2998 = test system: HCC 2998
HCT-116 = test system: HCT-116
HCT-15 = test system: HCT-15
HL-60 = test system: HL-60
HOP-62 = test system: HOP-62
HOP-92 = test system: HOP-92
HT-29 = test system: HT-29
IGROV-1 = test system: IGROV-1
KM-20L2 = test system: KM-20L2
LOX IMVI = test system: LOX IMVI
LXFL 529 = test system: LXFL 529
M14 = test system: M14
M19-MEL = test system: M19-MEL
MOLT-4 = test system: MOLT-4
NCI-H226 = test system: NCI-H226
NCI-H23 = test system: NCI-H23
NCI-H460 = test system: NCI-H460
OVCAR-4 = test system: OVCAR-4
OVCAR-5 = test system: OVCAR-5
OVCAR-8 = test system: OVCAR-8
RPMI-8226 = test system: RPMI-8226
RXF 393 = test system: RXF 393
SF-268 = test system: SF-268
SF-539 = test system: SF-539
SK-MEL-28 = test system: SK-MEL-28
SK-MEL-2 = test system: SK-MEL-2
SK-MEL-5 = test system: SK-MEL-5
SN12C = test system: SN12C
SNB-19 = test system: SNB-19
SNB-78 = test system: SNB-78
SR = test system: SR
SW-620 = test system: SW-620
TK-10 = test system: TK-10
UACC-257 = test system: UACC-257
UACC-62 = test system: UACC-62
UO-31 = test system: UO-31
XF498 = test system: XF498
A498 = test system: A498
BT-549 = test system: BT-549
CAKI-1 = test system: CAKI-1
DU-145 = test system: DU-145
MDA-MB-435 = test system: MDA-MB-435
MDA-N = test system: MDA-N
NCI-H522 = test system: NCI-H522
PC-3 = test system: PC-3
SF-295 = test system: SF-295
T47D = test system: T47D
U-251 = test system: U-251

Measured: GI50

O=C(N/C=C1\C(=O)Oc2ccccc2C1=O)NC1CCCCC1
inactive: A549 > 100 µM | ACHN 30.5 µM | COLO 205 > 100 µM | DMS-114 45.3 µM | DMS-273 > 100 µM | EKVX > 100 µM | HCC 2998 > 100 µM | HCT-116 78.5 µM | HL-60 40 µM | HOP-62 68.4 µM | HOP-92 18.5 µM | HT-29 > 100 µM | IGROV-1 56.5 µM | KM-20L2 > 100 µM | LOX IMVI 85.3 µM | LXFL 529 63.1 µM | M14 50.2 µM | M19-MEL 73.5 µM | MOLT-4 62.7 µM | NCI-H226 41.1 µM | NCI-H23 69 µM | NCI-H460 > 100 µM | OVCAR-4 77.8 µM | OVCAR-5 > 100 µM | OVCAR-8 > 100 µM | RPMI-8226 > 100 µM | RXF 393 19.9 µM | SF-268 41.2 µM | SF-539 > 100 µM | SK-MEL-28 46.7 µM | SK-MEL-2 24.2 µM | SK-MEL-5 > 100 µM | SN12C 39.7 µM | SNB-19 42.7 µM | SNB-78 22.9 µM | SR > 100 µM | SW-620 98.4 µM | TK-10 > 100 µM | UACC-257 69.7 µM | UACC-62 28 µM | UO-31 21.3 µM | XF498 21.4 µM
37.3 µM: HCT-15

CCN(CC)CCNc1ccc(CO)c2sc3ccccc3c(=O)c12 [HYCANTHONE MESYLATE]
inactive: A498 6.1 µM | A549 5.08 µM | BT-549 13.5 µM | CAKI-1 9.02 µM | DMS-114 8.71 µM | DMS-273 5.57 µM | DU-145 9.57 µM | EKVX 10.5 µM | HCT-116 3.34 µM | HOP-92 2.75 µM | KM-20L2 8.2 µM | M19-MEL 13.3 µM | MDA-MB-435 3.27 µM | MDA-N 5.12 µM | MOLT-4 1.63 µM | NCI-H226 8.91 µM | NCI-H23 9.48 µM | NCI-H460 3.05 µM | NCI-H522 3.78 µM | OVCAR-4 4.45 µM | OVCAR-5 6.95 µM | OVCAR-8 5.15 µM | PC-3 5.81 µM | RPMI-8226 12.9 µM | RXF 393 5.19 µM | SF-268 6.7 µM | SF-295 8.26 µM | SF-539 11 µM | SK-MEL-28 9.68 µM | SNB-19 11.4 µM | SNB-78 13.4 µM | SR 2.83 µM | SW-620 2.75 µM | T47D 11.5 µM | TK-10 12.1 µM | U-251 8.89 µM | UACC-257 11.6 µM | UACC-62 14.7 µM | UO-31 4.1 µM | XF498 11.6 µM
